Results: patent publication US11040986B2, “Crystalline forms of cabotegravir sodium” (Sandoz AG, priority 2017, dated 2021)
Blank lines part the entries; values can stand above or below the compound they belong to.

Key:
[1] = competitive slurry experiments with Form A and Form B in 2-butanone; type: physicochemical; conditions: for Sample 1 after 1 day (solid form) / Sample 2 after 2 days (solid form) / Sample 3 after 6 days (solid form) / Result (solid form after slurrying): 2-butanone; for Result (solid form after slurrying): equal amounts of Form A and Form B
Protocol: Competitive slurry experiments in 2-butanone were performed by suspending equal amounts of Form A (approximately 50 mg, prepared according to Reference Example 1 herein) and Form B (approximately 50 mg, prepared according to Example 1 herein) in 2-butanone (4 mL) and vigorously stirring the obtained suspension using a magnetic stirrer at 20° C.; 40° C., 60° C. and 80° C. respectively.

[2] = equilibrium slurry experiments starting from cabotegravir sodium Form A (solvent-mediated phase transformation, PXRD); type: physicochemical; conditions: for Result (PXRD): 7 days
Protocol: […] After 7 days, the solids were collected by filtration dried under vacuum (30 mbar) at room temperature for 20 hours and analyzed by PXRD.
PXRD was performed with a PANalytical X'Pert PRO diffractometer equipped with a theta/theta coupled goniometer in transmission geometry, Cu-Kalpha1,2 radiation (wavelength 0.15419 nm) with a focusing mirror and a solid state PIXcel detector. Diffractograms were recorded at a tube voltage of 45 kV and a tube current of 40 mA, applying a stepsize of 0.013° 2-theta with 40 s per step (255 channels) in the angular range of 2° to 40° 2-theta at ambient conditions. A typical precision of the 2-theta values is in the range of ±0.2° 2-Theta, preferably of ±0.1° 2-Theta. Thus, the diffraction peak of cabotegravir sodium Form B that appears for example at 6.8° 2-Theta can appear in the range of from 6.6 to 7.0° 2-Theta, preferably in the range of from 6.7 to 6.9° 2-Theta on most X-ray diffractometers under standard conditions. […]
[…] The suspension was vigorously stirred at 60° C. using a magnetic stirrer. After 2 days, the solid was collected by filtration dried under vacuum (30 mbar) at room temperature for 20 hours and analyzed by PXRD, which confirmed the receipt of Form C.

Sample 1 after 1 day (solid form) ([1]; 20° C.): Form B
Sample 2 after 2 days (solid form) ([1]; 20° C.): Form B
Sample 3 after 6 days (solid form) ([1]; 20° C.): Form B
Sample 1 after 1 day (solid form) ([1]; 40° C.): Form B
Sample 2 after 2 days (solid form) ([1]; 40° C.): Form B
Sample 3 after 6 days (solid form) ([1]; 40° C.): Form B
Sample 1 after 1 day (solid form) ([1]; 60° C.): Form B
Sample 2 after 2 days (solid form) ([1]; 60° C.): Form B
Sample 3 after 6 days (solid form) ([1]; 60° C.): Form B
Sample 1 after 1 day (solid form) ([1]; 80° C.): Form B
Sample 2 after 2 days (solid form) ([1]; 80° C.): Form B
Sample 3 after 6 days (solid form) ([1]; 80° C.): Form B
Result (solid form after slurrying) ([1]; 20° C.): Form B
Result (solid form after slurrying) ([1]; 40° C.): Form B
Result (solid form after slurrying) ([1]; 60° C.): Form B
Result (solid form after slurrying) ([1]; 80° C.): Form B
SMILES: C[C@H]1CO[C@@H]2Cn3cc(C(=O)NCc4ccc(F)cc4F)c(=O)c([O-])c3C(=O)N12.[Na+] [Form A + Form B, cabotegravir sodium]

Result (PXRD) ([2]; 1,4-dioxane 5 mL, room temperature): Form B
Result (solid form after slurrying) ([2]; 1,4-dioxane, room temperature): Form B
Result (PXRD) ([2]; 2-butanone 5 mL, room temperature): Form B
Result (solid form after slurrying) ([2]; 2-butanone, 20° C.): Form B
Result (solid form after slurrying) ([2]; 2-butanone, 40° C.): Form B
Result (solid form after slurrying) ([2]; 2-butanone, 60° C.): Form B
Result (solid form after slurrying) ([2]; 2-butanone, 80° C.): Form B
Result (solid form after slurrying) ([2]; 2-butanone, room temperature): Form B
Result (PXRD) ([2]; acetone 5 mL, room temperature): Form B
Result (solid form after slurrying) ([2]; acetone, room temperature): Form B
Result (PXRD) ([2]; methyl acetate 5 mL, room temperature): Form B
Result (solid form after slurrying) ([2]; methyl acetate, room temperature): Form B
solid form by PXRD after slurrying ([2]; methylisobutyl ketone 20 mL, 60° C., 2 days): Form C
Result (solid form after slurrying) ([2]; methylisobutyl ketone, 60° C.): Form C
Result (solid form after slurrying) ([2]; methylisobutyl ketone, room temperature): Form C
Result (PXRD) ([2]; tetrahydrofuran 5 mL, room temperature): Form B
Result (solid form after slurrying) ([2]; tetrahydrofuran, room temperature): Form B
SMILES: C[C@H]1CO[C@@H]2Cn3cc(C(=O)NCc4ccc(F)cc4F)c(=O)c([O-])c3C(=O)N12.[Na+] [Form A, cabotegravir sodium]

SMILES: C[C@H]1CO[C@@H]2Cn3cc(C(=O)NCc4ccc(F)cc4F)c(=O)c([O-])c3C(=O)N12.[Na+] [Form B, cabotegravir sodium]
thermodynamic stability relative to Form A ([2]; slurry experiments of Table 1, at least under the tested conditions): thermodynamically more stable than prior art Form A
thermodynamic stability relative to Form A ([1]; competitive slurry in 2-butanone, 20 to 80° C.): thermodynamically more stable than Form A
